Series [1] has as its system UCHL1, USP2, USP4, USP8, USP10, USP12/UAF1, USP15, USP16, USP21, USP22, USP25, USP28, USP35, USP36, USP46/UAF1. The experiment in a line: DUB biochemical IC50 assays, off-target panel. As to conditions: bound over all 15 DUBs listed.
Series [2] relates to USP2, USP10, USP16, USP21, USP22, USP25, USP28, USP35, USP46. Briefly: DUB biochemical IC50 assays, nine DUBs. To be noted: range over the nine DUBs; for IC50: Ref. Ex. C excl. USP22, Ref. Ex. D excl. USP2, 46.
A further series is described as follows: Log D. In kind it is physicochemical. To be noted: pH 7.4; read-out: Log D measured at pH 7.4. From the text: log D: distribution co-efficient; lipophilicity measurement.
The next series concerns the target Cathepsin V (Homo sapiens, UniProt O60911). The experiment in a line: Cathepsin IC50, cathepsin V. In kind it is biochemical.
Another series in a line: Turbidimetric solubility. It is filed as physicochemical. To be noted: aqueous buffer, kinetic from dmso stock. From the text: Turbidimetric solubility: Test compound solution prepared in DMSO diluted into aqueous buffer.
Turbidimetry is used as the end-point by measuring absorbance at 620 nm.

Series [3] concerns HCT116 human colorectal carcinoma cells. The experiment in a line: In vitro cytotoxicity (Cell Tox), alamarBlue. In kind it is cell-based. To be noted: for EC50: Homo sapiens, HCT-116, 96-hour continual compound exposure, alamarBlue. From the text: There is also a need for compounds that have a favourable safety profile, which may be measured by a variety of standard in vitro and in vivo methods. A cell toxicity counter-screen may be used to assay the anti-proliferative/cytotoxic effect in a particular cell line (e.g. HCT116) by fluorometric detection of rezasurin (alamarBlue) to resofurin in response to mitochondrial activity.
In Vitro Cytotoxicity (Cell Tox): Measured in HCT116 human colorectal carcinoma cells using alamarBlue as the assay endpoint. Compound cytotoxicity was measured over a period of 96-hour continual compound exposure.

The target in another series is T1, Cathepsin K (Homo sapiens, UniProt P43235).
T1 sequence (P43235 115-329): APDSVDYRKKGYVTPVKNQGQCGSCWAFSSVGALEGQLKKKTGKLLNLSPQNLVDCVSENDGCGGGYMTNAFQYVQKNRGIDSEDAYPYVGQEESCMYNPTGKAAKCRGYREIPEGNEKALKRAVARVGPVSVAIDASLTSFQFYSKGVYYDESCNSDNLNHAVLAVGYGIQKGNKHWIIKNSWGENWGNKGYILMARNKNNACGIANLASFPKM
Briefly: Cathepsin IC50, cathepsin K. In kind it is biochemical.

The next series has as its system TOM20 ubiquitylation. Briefly: TOM20-ubiquitylation assay. In kind it is cell-based, Human. To be noted: antimycin A/oligomycin mitophagy trigger; n = 5, (0.015-0.075) printed below. From the text: Human cell lines can be challenged with mitochondrial depolarizing agents (ionophores (eg. CCCP, valinomycin), mitochondrial complex inhibitors (oligomycin, antimycin A)) to induce ubiquitylation of TOM20, which is then further promoted in the presence of USP30 inhibitors. TOM20 ubiquitylation is subsequently assessed through western blotting of the cell lysates, with TOM20 ubiquitylation adduct detection possible due to an 8 kDa molecule weight increase for each molecule of ubiquitin added, resulting in laddering of a TOM20 immunoreactive band. TOM20-ubiquitylation levels can be quantified using chemiluminescence densitometry of laddered immunoreactive bands.

The next series relates to UUO injured kidneys. Briefly: Unilateral ureteral obstructive kidney disease model (UUO). As to conditions: 10 days. In kind it is in vivo, C57BL/6 mice. From the text:
(f) The unilateral ureteral obstructive kidney disease model (UUO). [Chevalier et al, 2009, Kidney Int 75(11): 1145-1152] UUO causes renal injury characterised by tubular cell injury, interstitial inflammation and fibrosis. It serves as a model of irreversible post-renal acute kidney injury (AKI). Experimental UUO has illustrated the molecular mechanisms of apoptosis, inflammation and fibrosis, all of which are key processes in renal injury, regardless of the primary insult. Consequently, the UUO model provides investigators information beyond obstruction. Example 1 was assessed in the UUO model to determine the ability of the compound to attenuate progressive tubulointerstitial fibrosis and chronic kidney disease (CKD). On day 1 of the study, adult C57BL/6 mice were dosed by oral gavage according to one of the following dosing regimens; Vehicle or 5 mg/kg Example 1 BID. Two hours post dosing on day 1 study mice underwent surgery to ligate the left ureter at two points. Successful UUO surgery was later confirmed by observation of dilation of renal pelvis due to hydronephrosis. The animals were dosed according to their prescribed regimen for 10 days at which point kidneys were harvested, or histopathology assessment and for protein/RNA assessment. […]

The nature of another series: PK mouse. It is filed as in vivo. From the text:
Cl in vivo clearance: Pharmacokinetic measurement of the volume of plasma (or any matrix) from which a substance is completely removed per unit time.
Oral F: Oral Bioavailability.
Kpu,u is the ratio of unbound drug in brain to unbound drug in plasma and may be indicative of potential for treating peripheral and/or CNS indications.

A short description of series [4]: Brain homogenate free fraction, equilibrium dialysis. In kind it is in vitro ADME. To be noted: mouse brain tissue homogenate; read-out: Binding Mouse Brain fu, br. From the text: Brain fu,br: The free fraction of a compound in brain tissue homogenate preparation determined by in vitro equilibrium dialysis. It is understood that only unbound (free) compound is capable of engaging with the target.

In series [5] the test system is Salmonella typhimurium strains TA98, TA100, TA1535 and TA97a and the Escherichia Coli strain WP2 uvrA pKM101. The experiment in a line: Bacterial reverse mutation assay (Ames). As to conditions: up to 100 μg/well (equivalent to 5000 μg/plate), with and without metabolic activation. The method, then:
The bacterial reverse mutation assay (Ames Test) may be used to evaluate the mutagenic properties of compounds of the invention, commonly by using the bacterial strain Salmonella typhimurium, which is mutant for the biosynthesis of the amino acid histidine.
Example 1 was assessed in the bacterial reverse mutation assay (Ames) and in vitro micronucleus assay. All in vitro tests were conducted with and without exogenous metabolic activation using concentrations up to those limited by cytotoxicity or insolubility.

The next series can be described thus: Hepatocyte Cl human. In kind it is in vitro ADME. To be noted: human hepatocytes. The method, then:
Hep Cl human: in vitro hepatocyte clearance in human cells.
(§1) Clu: in vitro clearance. Clu as defined here is the scaled clearance, in turn calculated from the intrinsic clearance. The intrinsic clearance is the predicted clearance due to hepatic metabolic reactions, determined from incubation of a compound in a hepatocyte preparation.

The nature of a further series: Hepatocyte Cl mouse. To be noted: mouse hepatocytes. It is filed as in vitro ADME. The method, then:
Hep Cl mouse: in vitro hepatocyte clearance in mouse cells.
as §1

The values below come from patent publication US20220315572A1, “SUBSTITUTED CYANOPYRROLIDINES WITH ACTIVITY AS USP30 INHIBITORS” (MISSION THERAPEUTICS LIMITED, priority 2019, published 2022).

Each structure is given as a SMILES string. Converted amounts (≈) assume the structure as drawn.

Chain of Cathepsin V (O60911 114-334, species assumed): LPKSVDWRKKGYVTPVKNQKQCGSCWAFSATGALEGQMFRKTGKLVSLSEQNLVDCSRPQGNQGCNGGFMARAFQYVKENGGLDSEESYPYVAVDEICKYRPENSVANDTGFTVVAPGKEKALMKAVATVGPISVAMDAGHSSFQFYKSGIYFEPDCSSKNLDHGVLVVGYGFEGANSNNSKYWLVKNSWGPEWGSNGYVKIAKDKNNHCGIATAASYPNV

In the case of `C[C@@H]1C[C@@H](NC(=O)c2nnc(-c3cccc(C#N)c3)o2)CN1C#N` [Example 1, N-((3R,5R)-1-Cyano-5-methylpyrrolidin-3-yl)-5-(3-cyanophenyl)-1,3,4-oxadiazole-2-carboxamide], the melting point was 152 to 154 °C. Besides, the IC50 in series [1] was at least 5.8 µM. Besides, in [2], the “DUB selectivity preference for USP30 v 9 DUBs” value is recorded as 200-6900 and the IC50 was 5.8 to 202 µM. For the same molecule, in “Log D”, the logD came out at 1.3. The IC50 at Cathepsin V was found to be 176 µM. Also, in the series “Turbidimetric solubility”, the solubility is 65 µM (≈ 21 µg/mL). Further, in [3], the “Cell Tox EC50/USP30 IC50” value is given as over 1000 and the half-maximal effective concentration (EC50) was over 30 µM. On Cathepsin K, this molecule had a half-maximal inhibitory concentration (IC50) of 26.2 µM. The “TOM20-Ub 1.5-fold gain EC1.5x (μM)” value with TOM20 ubiquitylation is 0.035 (n = 5) μM. Also, the “α-SMA levels in UUO injured kidneys” value in the series with UUO injured kidneys (5 mg/kg oral BID, compared to vehicle treated controls) was “statistically reduced α-SMA levels”. In addition, in the series on UUO injured kidneys (5 mg/kg p.o. BID), the “collagen deposition, picrosirius red staining in ligated kidneys” value is reported as “statistically reduced collagen deposition”. The “Unbound plasma Cmax/TOM20-Ub cell potency” value in the series “PK mouse” (10 mg/kg PO dose - mouse) is on record as 82-fold. Further, the clearance in “PK mouse” (blood, mouse 2 mg/kg iv, read-out: Cl blood) was 23 mL/min/kg. In addition, the Kp in “PK mouse” (brain and plasma (unbound), 2 mg/kg IV dose - mouse, unbound brain to unbound plasma, read-out: Kpu, u) is 0.01. The bioavailability in the series “PK mouse” (in vivo, po, mouse 10 mg/kg, read-out: Oral F (%)) amounted to 48%. In addition, in series [4], the fraction unbound came to 0.26. Besides, the “induction of mutations, reverse mutation assay” value in [5] is given as “did not induce mutations”. Besides, the “Hepatocyte Cl human scaled Clu” value in “Hepatocyte Cl human” is given as 6 mL/min/kg. The “Hepatocyte Cl mouse scaled Clu” value in “Hepatocyte Cl mouse” is 45 mL/min/kg.
Turning to `N#Cc1cccc(-c2nnc(C(=O)N[C@@H]3C[C@@H](CF)N(C#N)C3)o2)c1` [Example 3, N-((3R,5S)-1-Cyano-5-(fluoromethyl)pyrrolidin-3-yl)-5-(3-cyanophenyl)-1,3,4-oxadiazole-2-carboxamide], in series [2], the “DUB selectivity preference for USP30 v 9 DUBs” value is recorded as 338-23000 and the IC50 was at least 4.4 µM. The molecule also yielded an IC50 against Cathepsin V of 42.9 µM. Also, in [3], the “Cell Tox EC50/USP30 IC50” value is recorded as over 2300 and the EC50 was over 30 µM. The half-inhibitory concentration (IC50) against Cathepsin K amounted to 18.8 µM.
